Assay results as given in article PMC11231114 (EJNMMI Research, 2024).

Key:
[1] = Blood activity clearance and pharmacokinetic parameters of radiolabelled compounds; format: in vivo; conditions: radiolabelled compound, rat
Description: Approximately 0.2 mL/31.1 MBq of compound was administered i.v. At established time points after injection (15 min, 30 min, 1 h, 2 h, 4 h and 6 h), the animals were euthanized by cervical dislocation and dissected. Selected organs and tissues were weighed, and their radioactivity was measured using a NaI(Tl) crystal gamma counter. The results were adjusted for the radioactive decay of ^18F. The physiological distribution was calculated and expressed in terms of the percentage of administrated dose found in each of the selected organs (%ID) or per gram of tissues/organ (%ID/g) with suitable standards of the injected dose.
For [^18F]SYN2 the initial fast decrease mainly represents the equilibrium between the intravascular and extravascular components, and the second slower phase represents the metabolism.

[2] = Dynamic microPET/CT imaging
Description: The scans were performed on a trimodal small animal scanner Albira Si PET/SPECT/CT Preclinical Imaging System (Bruker, Billerica, MA, USA) in a group of Wistar rats anesthetized with isoflurane (induction 4%, maintenance 1.5-2%).

CN(C)c1ccc2cc3ccc(N(C)C)cc3[n+](CC[18F])c2c1 [[^18F]SYN2]
AUCt ([1]; i.v.): 421 ng·h/mL
Cl ([1]; i.v.): 0.2 mL/min/kg
Cmax ([1]; i.v.): 76.39 ng/mL
Tmax ([1]; i.v.): 0 h
Vz ([1]; i.v.): 1.43 L/kg
T½ ([1]; calculated from Eq. (0.693 · VZ · AUC)/dose): 79.9 h
SUV in the myocardium, plateau ([2]; after 6 min): 3.5
SUV in the liver ([2]; at 45 min): 1.9
SUV in the myocardium at the beginning ([2]; dynamic microPET): 4.0
SUVmax in the liver ([2]; dynamic microPET): 2.9
average standardized uptake value, myocardial uptake ([2]; dynamic microPET): 3.8
